# Where two headings read alike, the source gives them in different places.
# What was measured:
# MCF-7 = experiment: MTT colorimetric assay, MCF-7 cells; type: cell-based; conditions: Homo sapiens, MCF7, 72 h, 3 days of culturing, mean of six determinations, read-out: IC50 (μM) In Vitro Growth Inhibition
# Description: (§1) The overall growth of human cancer cell lines was determined by means of the calorimetric MTT (3-[4,5-dimethylthiazol-2-yl]-diphenyl tetrazolium bromide; Sigma) assay, as detailed previously.
# BFU-E = experiment: HALO hematotoxicity assay, human BFU-E; type: cell-based; conditions: 7 days culture, iATP
# Description: (§2) Investigation of the hematotoxic potential of UNBS5162 was undertaken by HemoGenix (Colorado Springs, Colo.). The effects of UNBS5162 on stem and progenitor cell populations from murine and human bone marrow were assessed using HALO (Hematopoietic/Hematotoxicity Assay through Luminescence Output) technology. Stem and hematopoietic progenitor cell populations were isolated from mouse and human bone marrow samples, plated at a concentration of 1.0×10^4 cells/well and cultured for 5 and 7 days, respectively, in the presence of growth factors and increasing concentrations of UNBS5162 ranging from 0.5 nM to 50 μM. The proliferative or growth potential of cell populations was determined from intracellular ATP (iATP) concentrations and a luciferin/luciferase bioluminescence signal detection system. All samples were assayed in eight replicates. The results are presented as estimated inhibitory concentration (IC) values.
# [1] = system: nine human cancer cell lines; experiment: MTT colorimetric assay, mean of nine cell lines; type: cell-based; conditions: mean over nine human cancer cell lines, read-out: mean antiproliferative activity IC50
# Description: as §1
# UNBS3157 and UNBS5162 display weak antiproliferative activity in vitro.
# OE21 xenograft = experiment: s.c. metastatic OE21 xenograft nude mice model; type: in vivo; conditions: UNBS5162 10 mg/kg i.v. with cisplatin 5 mg/kg i.p.
# Description: To enable the achievement of pertinent in vivo studies, a highly metastatic s.c. model was developed by grafting OE21 cells subcutaneously into nude mice. […] In line with this, an experiment combining cisplatin to UNBS5162 was performed.
# The treatment protocol included following conditions: • UNBS5162: N-{2-[2-(dimethylamino)ethyl]-1,3-dioxo-2,3-dihydro-1H-benzo[de]isoquinolin-5-yl}urea
# Dose (mg/kg): 10 mg/kg (1.35 eq lactic acid) Dose volume: 200 μL/mouse Schedule: 3 injection(s) per week; 5 weeks (3i×5w)
# Dose (mg/kg): 5 mg/kg (saline) Dose volume: 200 μL/mouse Schedule: 1 injection per week; 5 weeks (1×5)
# Cisplatine (1×5)×5 mg/kg i.p.=>group 1 UNBS5162 (3×5)×10 mg/kg i.v.=>group 3 Cisplatine (1×3)×5 mg/kg i.p.=>1 w without treatment=>UNBS5162 (3×5)× […] i.v.=>group 4
# [2] = system: CXCL1, CXCL2, CXCL3, CXCL5, CXCL6, and CXCL8 chemokines; experiment: CXCL chemokine expression (microarray and ELISA), PC-3; type: cell-based, human; conditions: 1 μM five times a week
# Description: Two different Quantikine ELISA kits (R&D Systems, Abingdon, UK) for the quantification of human CXCL1 and CXCL8 (IL-8) were used in this study in accordance with the manufacturer's instructions. Cell culture supernatants were collected after different treatments and periods, with multiple aliquots taken and stored at −20° C. until analysis.
# [3] = system: human PC-3 orthotopic xenografts
# Description: Orthotopic xenografts were obtained by injecting 2.5×10^6 human PC-3 or DU-145 cells into the prostate of 6-week-old male nu/nu mice (n=9 animals per treatment group). All grafts were performed under anesthesia [saline/Rompun (Bayer, Leverkusen, Germany)/Imalgene (Merial, Lyons, France); 5:1:1 by volume]. The end point in these orthotopic experiments was the survival period of the tumor-bearing mice after the administration of UNBS3157, UNBS5162, or reference anticancer agents (taxol, mitoxantrone, and amonafide). However, for ethical reasons, animals were killed when 20% of body weight had been lost compared to that determined at the time of tumor grafting. All animals were weighed three times a week. […] In the case of UNBS5162 experiments in the PC-3 model, after the sacrifice of animals, tumors were removed from both drug-treated [10 mg/kg, intravenous (i.v.)] and vehicle-treated mice, fixed in buffered formalin, embedded in paraffin, and 5-μm-thick sections taken. These histologic slides were then stained with hematoxylin and eosin for blood vessel counts.
# CFC-GEMM = experiment: HALO hematotoxicity assay, human CFC-GEMM; type: cell-based; conditions: 7 days culture, iATP
# Description: as §2
# CXCL-1 and CXCL-8 = experiment: ELISA of CXCL1 and CXCL8, OE21 cells; type: cell-based, human; conditions: 5×1 μM
# Description: ELISA determination of CXCL1 and CXCL8 (IL-8) protein levels in untreated and 5×1 μM UNBS5162-treated OE21 cells. “5×1 μM” means that tumor cells were treated in vitro for one day with 1 μM UNBS5162 and then the culture medium was replaced by fresh medium containing 1 μM UNBS5162; this procedure of renewal of cell medium containing 1 μM UNBS5162 was repeated for five consecutive days, with determination of chemokine concentration being performed 24 h (+24 h) or 72 h (+72 h) after the 5th (last) treatment of tumor cells with UNBS5162. The concentrations of the two specific chemokines (expressed as pg/mL) were normalized by the cell number determined in each sample. Each sample was assessed in triplicate. The data are presented as means (grey columns)±SEM (thin bars) in FIG. 9.
smiles,measurement,setting,value
"CN(C)CCN1C(=O)c2cccc3cc(NC(N)=O)cc(c23)C1=O [UNBS5162, N-{2-[2-(dimethylamino)ethyl]-1,3-dioxo-2,3-dihydro-1H-benzo[de]isoquinolin-5-yl}urea]",IC50,MCF-7,46.5 µM
same,IC50,BFU-E; 168 h,3.6 µM
same,IC90,BFU-E; 168 h,17.6 µM
same,IC75,BFU-E,8.16 µM
same,IC50,[1],17.9 µM
same,anti-tumor effect in combination with cisplatin (tumor size),OE21 xenograft,enhanced the activity of cisplatin
same,expression of proangiogenic CXCL chemokines (mRNA and protein),[2],dramatically decreased
same,"angiogenesis in tumors (histopathology, blood vessel counts)","[3]; PC-3 orthotopic model, 10 mg/kg i.v.",anti-angiogenic properties in vivo
same,therapeutic benefit (survival),"[3]; PC-3 orthotopic model, 10 mg/kg i.v. three times a week for 6 consecutive weeks",therapeutic benefits that were similar to repeat i.v. administration (once a week for 6 consecutive weeks) of 20-mg/kg taxol
same,therapeutic benefit (survival) in combination,"[3]; PC-3 orthotopic model, UNBS5162 10 mg/kg i.v. at the same time as taxol 20 mg/kg i.v.",significantly (P<0.01) increased the therapeutic benefit contributed by taxol alone
same,therapeutic benefit (survival) in combination,"[3]; PC-3 orthotopic model, UNBS5162 before or after taxol",did not modify the therapeutic benefit contributed by taxol alone
same,"toxicity of combined treatment (mouse weight, behavior)","[3]; mouse, in vivo",did not contribute higher toxicity
same,IC50,CFC-GEMM; 168 h,2.57 µM
same,IC90,CFC-GEMM; 168 h,12.8 µM
same,IC75,CFC-GEMM,5.67 µM
same,CXCL-1 and CXCL-8 protein levels (ELISA),CXCL-1 and CXCL-8,a marked decrease in CXCL-1 and CXCL-8
